Experiment [1] relates to cysteamine-induced rat duodenal ulcer. Put plainly: Cysteamine-induced rat duodenal ulcer. As to conditions: 20 mg/kg. It is filed as in vivo, SD rats. As to the method: 50 male SD rats with a body weight of 250 to 300 g were used, and cysteamine was commercially available from Sigma Company. The tests were conducted according to the methods in “Drug Discovery and Evaluation—Pharmacological Assays” (H. G. Vogel, W. H. Vogel. Chinese version, translated by Du Guanhua, published by Science Publishing House).

For experiment [2], the system named is acetic acid-induced rat colonitis. Put plainly: 10% acetic acid-induced rat ulcerative colonitis. It is filed as in vivo, SD rats. As to conditions: 10 mg/kg, mean ± SD. As to the method: The test was conducted according to the method in the document (Ritzpatrick, R. et al., Agents Actions. 1990, 30:393-402). SD rats were subjected to rectoclysis to form models of colonitis. From the 4th day after the models had been made, the rats were intragastrically administrated for 4 days.

The subject of experiment [3] is anhydrous ethanol-induced rat gastric mucosa damage. Put plainly: Anhydrous ethanol-induced rat gastric mucosa damage. It is filed as in vivo, SD rats. To be noted: 100 mg/kg, ig; mean ± SD. As to the method:
60 SD rats with equal numbers of female and male were provided by the Experimental Animal Center of Nanjing Medical University, and the tests were conducted according to the methods in “Collection of Guidelines for Preclinical Studies of New Drugs (Western Medicines)” edited by China Ministry of Health.

The subject of experiment [4] is PGE2 content in gastric mucosa. Put plainly: PGE2 content in gastric mucosa of rat with indomethacin-induced gastric ulcer (radioimmunoassay). It is filed as in vivo, SD rats. As to conditions: 100 mg/kg; mean ± SD. How it is done:
60 SD rats with a body weight of 180 to 200 g and equal numbers of male and female were used, Indomethacin was commercially available from Sigma Company. The PGE2 content was measured by radioimmunoassay. The tests were conducted according to the methods in “Drug Discovery and Evaluation—Pharmacological Assays” (H. G. Vogel, W. H. Vogel. Chinese version, translated by Du Guanhua, published by Science Publishing House).

In experiment [5] the test system is pylorus-ligated Shay rat gastric ulcer. Description: Pylorus-ligated Shay rat gastric ulcer. It is filed as in vivo, SD rats. To be noted: 80 mg/kg, ig; mean ± SD. As to the method: 50 SD rats with a body weight of 180 to 200 g and equal numbers of female and male were provided by the Experimental Animal Center of Nanjing Medical University, and the tests were conducted according to the methods in “Collection of Guidelines for Preclinical Studies of New Drugs (Western Medicines)” edited by China Ministry of Health.

Experiment [6] deals with acetic acid-burn induced gastric ulcer in rats. Description: Acetic acid-burn induced gastric ulcer in rats. As to conditions: 80 mg/kg, ig; mean ± SD. It counts as in vivo. How it is done:
50 SD rats with a body weight of 180 to 200 g and equal numbers of female and male were provided by the Experimental Animal Center of Nanjing Medical University, and the tests were conducted according to the methods in “Collection of Guidelines for Preclinical Studies Of New Drugs (Western Medicines)” edited by China Ministry of Health.

The subject of a further experiment is mouse gastric emptying. Description: Mouse gastric emptying (phenol red method). It is filed as in vivo, Kunming mice. As to conditions: 0.1 mg/kg; mean ± SD. As to the method:
105 Kunming mice with a body weight of from 20 to 25 g and equal numbers of male and female were used. The test was conducted according to the methods in “Collection of Guidelines for Preclinical Studies of New Drugs (Western Medicines)” edited by China Ministry of Health, and the phenol red method (Shi G., et al. Gut, 41:612-618, 1997).

Experiment [7] concerns TNBS-induced rat colonitis. Put plainly: TNBS-induced rat colonitis. It is filed as in vivo, SD rats. As to conditions: 0.3 g/kg, intragastric for 7 days; mean ± SD. As to the method: The test was counted according to the method in the document (Morris, C. P. et al: Gastroenterology. 1989, 96:795-803). TNBS was commercially available from Sigma Company. SD rats were subjected to rectoclysis of 100 mg/kg of TNBS to form models of colonitis. Each group included 10 rats. From the 14th day after the models had been made, the rats were intragastrically administrated for 7 days. The rats were killed by drawing their necks and were dissected, and their colon sections were histopathologically observed.

For the compound `NC(N)=Nc1nc(CSCCC(N)=NS(N)(=O)=O)cs1` [Famotidine], the “Inhibition ratio (%)” value in experiment [1] stood at 27.27%. This compound came in with a Ulcer index in experiment [1] (mean ± SD) of 2.0 ± 1.3. The “Score of ulcer index” value in experiment [2] (intragastric for 4 days) is listed as 4.14 ± 3.76. Besides, the “Ratio of bowel weight to body weight (×10^−2)” value in experiment [2] is on record as 0.92 ± 0.45 ×10^−2.
Bismuth Potassium Citrate returned a Ulcer index in experiment [3] of 15.0 ± 6.0. Besides, in experiment [4], the “PGE2 (pg/mg protein)” value amounted to 170 ± 104 pg/mg protein.
As for `CN/C(=N/CCSCc1nc[nH]c1C)NC#N` [Cimetidine], in experiment [5], the Ulcer index came out at 15.8 ± 1.5. Moreover, the “Ulcer area (mm^2)” value in experiment [6] is recorded as 44.7 ± 38.4 mm^2.
On to `CN(C)C(=O)Oc1ccc[n+](C)c1` [Pyridostigmine bromide], for which, in the experiment with mouse gastric emptying, the “Amount of residual phenol red in stomach” value is 0.47 ± 0.36 mg and the “Gastric emptying ratio (%)” value is given as 93.8 ± 4.8 %.
In the case of `O=C(O)c1cc(/N=N/c2ccc(S(=O)(=O)Nc3ccccn3)cc2)ccc1O` [Sulfasalazine], in experiment [7], the “Increment of body weight” value was determined as 68.89 ± 21.64.

The values are drawn from US20070219128A1, “Medical and health-care uses of pufferfish type I collagen extract and processes for producing said extract” (NANJING BESSON PHARMACY CO., LTD, priority 2003, published 2007).
